Source: paper PMC11647902, “Design, Synthesis, and Biological Evaluation of [1,2,5]Oxadiazolo[3,4-b]pyridin-7-ol as Mitochondrial Uncouplers for the Treatment of Obesity and Metabolic Dysfunction-Associated Steatohepatitis” (Journal of Medicinal Chemistry, 2024)

What was measured:
[1] = in vivo; settings: male, C57BL/6, mouse, plasma, po, 10 mg/kg
Description: The exposure levels in plasma were determined by liquid chromatography/mass spectrometry (LC/MS) and half-life was calculated. […] Samples were processed at UNSW for liquid chromatography tandem mass spectrometry (LC–MS/MS) by protein precipitation into a mixture of acetonitrile/methanol solution (AcN-MeOH, 9:1). Seven μL of plasma was precipitated in 100 μL of AcN-MeOH, followed by centrifugation at 18,000g for 10 min and collection of the supernatant for analysis. […] Chromatographic separation was achieved using an ACUITY UPLC BEH, C18 column (Waters, WT186002350, USA). Mobile phase A consisted of 0.1% v/v formic acid in HLPC grade water, while mobile phase B consisted of 0.1% v/v formic acid in ACN. Electrospray ionization (ESI) was performed in negative mode. […] Pharmacokinetic properties were calculated using PKSolver add-in tool (Excel).

[2] = system: L6 rat myoblasts; experiment: OCR Seahorse assay (oxygen consumption rate, mitochondrial uncoupling); settings: for EC50 / Emax at 200 µM: Rattus norvegicus; for EC50: L6; for Emax at 200 µM: L6, read-out: % of BAM15 OCR, L6 myoblasts, integrated area under OCR dose curve above baseline relative to BAM15 of same experiment, NA = No Activity, highest tested concentration 200 μM; for cellular toxicity in OCR assay: L6 myoblasts, at higher concentrations
Description: With 7 and 9 derivatives in hand, we screened for mitochondrial uncoupling activity as a function of oxygen consumption rate (OCR). […] OCR was measured using an Agilent Seahorse XF24 or XFe96 Analyzer (Agilent Technologies, Santa Clara, CA). L6 myoblasts were seeded in a Seahorse 24 or 96-well tissue culture plate at a density of 3.5 × 10^4 cells/well. The cells were then allowed to adhere overnight. […] Compounds were injected during the assay, and OCR was measured using 2 min measurement periods. Cells were treated with a single drug concentration per well and measured over a 90 min period. Two wells were used per condition and, where applicable, results from multiple plates were averaged together. The first three measurements after injection for each concentration were averaged to produce a dose curve. […] AUC values were also calculated using the same software.

[3] = design: method as in PMID 38629387; settings: STEP-1 clinical trials; cited from earlier work
[4] = system: L6 myoblast cells; experiment: Mitochondrial stress test and self-limiting test (OCR); settings: L6 myoblasts
[5] = system: GAN mouse model of MASH; experiment: Gubra-Amylin NASH (GAN) diet mouse model of MASH; type: in vivo
[6] = 200 mg kg^–1 in GAN diet, 4 weeks

Compound | EC50 [2] [µM] | Emax at 200 µM [2] [%] | other results
Oc1c(Nc2ccc(-c3ccc(F)cc3)cc2)cnc2nonc12 [7ao, 6-((4′-Fluoro-[1,1′-biphenyl]-4-yl)amino)-[1,2,5]oxadiazolo[3,4-b]pyridin-7-ol] | 1.7 ± 0.2 | < 50 | Cmax at 24 h [1]: 6 µM; half-life at 24 h [1]: 0.9 ± 0.07 h
Oc1c(Nc2ccc(-c3cccc(F)c3)cc2)cnc2nonc12 [7al, 6-((3′-Fluoro-[1,1′-biphenyl]-4-yl)amino)-[1,2,5]oxadiazolo[3,4-b]pyridin-7-ol] | 1.2 ± 0.1 | 36 | Cmax at 24 h [1]: 4 µM; half-life at 24 h [1]: 0.9 ± 0.34 h
semaglutide | – | – | loss of lean mass [3]: up to 40%
Oc1c(Nc2ccc(-c3ccc(Cl)cc3)cc2)cnc2nonc12 [7ap, 6-((4′-Chloro-[1,1′-biphenyl]-4-yl)amino)-[1,2,5]oxadiazolo[3,4-b]pyridin-7-ol] | 0.9 ± 0.1 | < 50 | Cmax at 24 h [1]: 4 µM; half-life at 24 h [1]: 1.8 ± 0.25 h
Oc1c(Nc2ccc(-c3cccc(Cl)c3)cc2)cnc2nonc12 [SHO1122147, 6-((3′-Chloro-[1,1′-biphenyl]-4-yl)amino)-[1,2,5]oxadiazolo[3,4-b]pyridin-7-ol] | 3.6 ± 0.1 | 55 | respiration (OCR) in self-limiting test ([4]; SHO1122147 10 μM, BAM15 1.1 μM): 200%; OCR after blockade with oligomycin ([4]; oligomycin 1 μM, then SHO1122147 10 μM or BAM15 1.1 μM at t = 40 min): increased OCR; loss of body weight ([5]; 200 mg kg^–1 admixed in GAN diet, 4 weeks): 15.4%; fat mass as percent of body weight (EchoMRI) [5, 6]: lowering fat mass; fat-free lean mass as percent of body weight (EchoMRI) [5, 6]: increasing fat-free lean mass; liver mass [5, 6]: no significant change; liver triglycerides [5, 6]: decreased; plasma alanine aminotransferase (ALT) [5, 6]: decreased; fibrosis stage ([5]; 200 mg kg^–1 in GAN diet, 4 weeks, compared to GAN controls): No changes; MAFLD activity score ([5]; 200 mg kg^–1 in GAN diet, 4 weeks, primarily due to decreased hepatic steatosis): significant decrease; caloric intake ([5]; 200 mg kg^–1 in GAN diet, food intake monitored daily): no significant changes; body temperature ([5]; 200 mg kg^–1 day^–1): without changes in body temperature; Cmax at 24 h [1]: 35 µM; half-life at 24 h [1]: 2 ± 0.07 h
Oc1c(Nc2ccccc2C(F)(F)F)cnc2nonc12 [7q, 6-((2-(Trifluoromethyl)phenyl)amino)-[1,2,5]oxadiazolo[3,4-b]pyridin-7-ol] | 34 ± 4 | 57 | –
Oc1c(Nc2ccc(-c3cc(C(F)(F)F)cc(C(F)(F)F)c3)cc2)cnc2nonc12 [7aw, 6-((3′,5′-Bis(trifluoromethyl)-[1,1′-biphenyl]-4-yl)amino)-[1,2,5]oxadiazolo[3,4-b]pyridin-7-ol] | 41 ± 4.9 | 20 | –
CCCCc1ccc(Nc2cnc3nonc3c2O)cc1 [7d, 6-((4-Butylphenyl)amino)-[1,2,5]oxadiazolo[3,4-b]pyridin-7-ol] | – | 19 | –
Oc1c(-c2ccccc2Cl)cnc2nonc12 [9b, 6-(2-Chlorophenyl)-[1,2,5]oxadiazolo[3,4-b]pyridin-7-ol] | 85 ± 16 | 49 | –
Oc1c(-c2cccc(C(F)(F)F)c2)cnc2nonc12 [9d, 6-(3-(Trifluoromethyl)phenyl)-[1,2,5]oxadiazolo[3,4-b]pyridin-7-ol] | 26 ± 4.5 | 59 | cellular toxicity in OCR assay [2]: exhibited cellular toxicity at higher concentrations
Oc1c(Nc2cccc(Cl)c2F)cnc2nonc12 [7aa, 6-((3-Chloro-2-fluorophenyl)amino)-[1,2,5]oxadiazolo[3,4-b]pyridin-7-ol] | 32 ± 1.9 | 68 | –
Oc1c(Nc2ccc(C(F)(F)F)cc2)cnc2nonc12 [7s, 6-((4-(Trifluoromethyl)phenyl)amino)-[1,2,5]oxadiazolo[3,4-b]pyridin-7-ol] | 35 ± 1.7 | 43 | –
Oc1c(Nc2cccc(F)c2)cnc2nonc12 [7n, 6-((3-Fluorophenyl)amino)-[1,2,5]oxadiazolo[3,4-b]pyridin-7-ol] | 51 ± 2.6 | 55 | –
Oc1c(Nc2c(F)c(F)c(F)c(F)c2F)cnc2nonc12 [7z, 6-((Perfluorophenyl)amino)-[1,2,5]oxadiazolo[3,4-b]pyridin-7-ol] | 18 ± 2.4 | 50 | –
Oc1c(-c2ccccc2F)cnc2nonc12 [9a, 6-(2-Fluorophenyl)-[1,2,5]oxadiazolo[3,4-b]pyridin-7-ol] | 27 ± 2.8 | 69 | –
Oc1c(Nc2ccc(-c3cccc(C(F)(F)F)c3)cc2)cnc2nonc12 [7an, 6-((3′-(Trifluoromethyl)-[1,1′-biphenyl]-4-yl)amino)-[1,2,5]oxadiazolo[3,4-b]pyridin-7-ol] | 0.5 ± 0.1 | 25 | cellular toxicity in OCR assay [2]: showed cellular toxicity at higher concentrations
Oc1c(Nc2ccc(F)c(F)c2)cnc2nonc12 [7x, 6-((3,4-Difluorophenyl)amino)-[1,2,5]oxadiazolo[3,4-b]pyridin-7-ol] | 63 ± 3.7 | 55 | –
Cc1ccc(Nc2cnc3nonc3c2O)cc1 [7b, 6-(p-Tolylamino)-[1,2,5]oxadiazolo[3,4-b]pyridin-7-ol] | 49 | 38 | –
